From patent US6559177B2, “5, 11-Dioxa-benzo[b]fluoren-10-one and 5-oxa-11-thia-benzo[b]fluoren-10-ones as estrogenic agents” (Wyeth, priority 2001, dated 2003)
Where two headings read alike, the source gives them in different places.

Tests used:
human ERα = target: T1, human ERα (Homo sapiens, UniProt P03372); assay: Competition with [3H]-17β-estradiol for binding to ERα ligand binding domain; conditions: E. coli lysate expressing ER ligand binding domains (D,E,&F); 2 nM [3H]-17β-estradiol; 5-15 hours at room temperature
T1 construct: made in house; host or cells: E. coli (crude lysate)
T1 sequence (P03372 311-547 limits assumed): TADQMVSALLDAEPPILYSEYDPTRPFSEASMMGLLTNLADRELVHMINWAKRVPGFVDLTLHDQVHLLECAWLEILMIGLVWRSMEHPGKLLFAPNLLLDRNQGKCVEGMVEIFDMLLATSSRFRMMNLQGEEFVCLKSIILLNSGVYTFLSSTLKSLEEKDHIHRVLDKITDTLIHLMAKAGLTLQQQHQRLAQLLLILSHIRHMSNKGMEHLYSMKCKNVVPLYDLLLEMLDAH
Procedure: (§1) This test procedure provides the methodology for one to determine whether a particular compound binds to the estrogen receptor (and is therefore “estrogenic”) and whether there is selectivity for ERα or ERβ. […] The procedure used is briefly described below. A crude lysate of E. coli expressing the estrogen receptor ligand binding domains (D,E, & F) of human ERα or ERβ was prepared. Both receptors and compounds were diluted in 1× Dulbecco's PBS (DPBS) supplemented with 1 mM EDTA. […] After between 5 and 15 hours at room temperature, the plates were washed with DPBS/1 mM EDTA and bound radioactivity determined by liquid scintillation counting.

human ERβ = target: T2, human ERβ (Homo sapiens, UniProt Q92731); assay: Competition with [3H]-17β-estradiol for binding to ERβ ligand binding domain
T2 construct: made in house; host or cells: E. coli (crude lysate)
Procedure: as §1

[1] = E. coli lysate expressing ER ligand binding domains (D,E,&F); 2 nM [3H]-17β-estradiol; 5-15 hours at room temperature; read-out: ERβ IC50
[2] = read-out: ERβ IC50; E. coli lysate expressing ER ligand binding domains (D,E,&F); 2 nM [3H]-17β-estradiol; 5-15 hours at room temperature

T2 sequence (Q92731 264-498 limits assumed): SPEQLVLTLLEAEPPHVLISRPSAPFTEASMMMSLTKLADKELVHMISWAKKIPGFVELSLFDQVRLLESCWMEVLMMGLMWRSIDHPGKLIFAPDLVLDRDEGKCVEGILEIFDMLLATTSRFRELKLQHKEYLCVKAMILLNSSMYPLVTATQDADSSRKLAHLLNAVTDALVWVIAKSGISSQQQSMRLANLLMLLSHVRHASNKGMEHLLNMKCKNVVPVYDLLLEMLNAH

Row | IC50 (human ERα) [nM] | IC50 (human ERβ; [1]) [nM] | SMILES | IC50 (human ERβ; [2]) [nM]
1 | 550 | 32 | O=c1c2ccc(O)cc2oc2c1oc1cc(O)ccc12 [2,7-Dihydroxy-5,11-dioxa-benzo[b]fluoren-10-one] | 
2 | 1500 | 192 | O=c1c2cc(O)ccc2oc2c1oc1cc(O)ccc12 [2,8-Dihydroxy-5,11-dioxa[b]fluoren-10-one] | 
3 | 2950 | 70 | O=c1c2oc3ccc(O)cc3c2oc2cc(O)cc(O)c12 [3,7,9-Trihydroxy-5,11-dioxa-benzo[b]fluoren-10-one] | 
4 |  | 850 | O=c1c2ccc(O)cc2oc2c1oc1ccc(O)cc12 [3,7-Dihydroxy-5,11-dioxa[b]fluoren-10-one] | 
5 | 188 | 44 | O=c1c2cc(O)ccc2oc2c1oc1ccc(O)cc12 [3,8-Dihydroxy-5,11-dioxa[b]fluoren-10-one] | 
6 |  |  | O=c1c2oc3ccccc3c2oc2cc(O)cc(O)c12 [7,9-Dihydroxy-5,11-dioxa-benzo[b]fluoren-10-one] | 3190
7 | 3670 | 760 | O=c1c2sc3ccccc3c2oc2cc(O)cc(O)c12 [7,9-Dihydroxy-5-oxa-11-thia-benzo[b]fluoren-10-one] | 
8 |  |  | O=c1c2ccc(O)cc2oc2c1sc1ccccc12 [7-Hydroxy-5-oxa-11-thia-benzo[b]fluoren-10-one] | 2930
9 | > 5000 | 2710 | O=c1c2ccc(O)cc2oc2c1oc1c3ccccc3ccc21 [9-Hydroxy-7,13-dioxa-dibenzo[a,h]fluoren-12-one] | 
